Test results published in US10092537B2, “Use for PAI-1 inhibitor” (RENASCIENCE CO., LTD., priority 2013, dated 2018).
Structures can show the parent of a compound that is named as a salt.

The compounds below were run against T1, human PAI-1 (Homo sapiens, UniProt P05121) (assay: Measurement of PAI-1 inhibitory activity of compound group 1 (t-PA, S-2288 chromogenic substrate)). Settings: read-out: PAI-1 activity %.
T1 sequence (P05121 24-402): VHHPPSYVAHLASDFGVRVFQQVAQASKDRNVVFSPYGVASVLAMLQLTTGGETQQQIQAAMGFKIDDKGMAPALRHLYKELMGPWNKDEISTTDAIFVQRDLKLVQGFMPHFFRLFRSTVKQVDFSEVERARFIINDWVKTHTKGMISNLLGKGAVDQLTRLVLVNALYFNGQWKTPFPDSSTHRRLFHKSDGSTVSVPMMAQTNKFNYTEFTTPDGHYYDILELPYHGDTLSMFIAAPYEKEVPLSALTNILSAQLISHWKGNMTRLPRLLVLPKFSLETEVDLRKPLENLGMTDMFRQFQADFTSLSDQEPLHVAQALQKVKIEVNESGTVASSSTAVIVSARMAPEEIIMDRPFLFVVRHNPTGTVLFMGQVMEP
Description: Subsequently, human-derived tissue plasminogen activator (t-PA) (manufactured by American Diagnostica, Inc. (USA); the same applies hereinafter) adjusted to 0.35 pmol/μL was added thereto, and the mixture was further incubated at 37° C. for 15 minutes.

activity at 20 µM [%] | activity at 50 µM [%] | SMILES
95.5 | 48.9 | O=C(CCCNC(=O)c1cccc(-c2ccoc2)c1)Nc1ccc(Cl)cc1C(=O)O [Example 1, 5-chloro-2-{[4-({[3-(furan-3-yl)phenyl]carbonyl}amino)butanoyl]amino}benzoic acid]
63.7 | 19.6 | O=C(Cc1cccc(-c2ccoc2)c1)Nc1ccc(Cl)cc1C(=O)O [Example 3, 5-chloro-2-({[3-(furan-3-yl)phenyl]acetyl}amino)benzoic acid]
51.4 | 22.2 | O=C(O)c1cc(Cl)ccc1NC(=O)c1ccccc1-c1ccccc1 [Example 6, 2-[(biphenyl-2-ylcarbonyl)amino]-5-chlorobenzoic acid]
98.1 | 53.2 | O=C(O)c1cc(Cl)ccc1NC(=O)[C@@H]1CCCN1C(=O)Cc1cccc(-c2ccoc2)c1 [Example 9, 5-chloro-2-[(1-{[3-(furan-3-yl)phenyl]acetyl}-L-prolyl)amino]benzoic acid]

Each compound was assayed against T1, human PAI-1 (assay: Measurement of PAI-1 inhibitory activity of compound group 1 (t-PA, Spectrozyme t-PA chromogenic substrate)). Settings: read-out: PAI-1 activity %.

SMILES | activity at 2.5 µM [%] | activity at 10 µM [%]
O=C(Nc1ccc(Cl)cc1-c1nnn[nH]1)c1cccc(-c2cccc3cccnc23)c1 [Example 102, N-[4-chloro-2-(1H-tetrazol-5-yl)phenyl]-3-(quinolin-8-yl)benzamide] | 91.3 | 1.5
O=C(/C=C/c1cccc(-c2cccnc2)c1)Nc1ccc(Cl)cc1C(=O)O [Example 103, sodium 5-chloro-2-({(2E)-3-[3-(pyridin-3-yl)phenyl]prop-2-enoyl}amino)benzoate] | 92.3 | 34.2
O=C(Nc1ccc(Cl)cc1C(=O)O)c1ccc(-c2ccc(F)cc2)s1 [Example 104, 5-chloro-2-({[5-(4-fluorophenyl)thiophen-2-yl]carbonyl}amino)benzoic acid] | 84.8 | 0.9
O=C(Nc1ccc(Cl)cc1C(=O)O)c1ccc(-c2ccccc2)o1 [Example 105, 5-chloro-2-{[(5-phenylfuran-2-yl)carbonyl]amino}benzoic acid] | 89.9 | 23.5
O=C(Nc1ccc(C23CC4CC(CC(C4)C2)C3)cc1)C(=O)Nc1ccc(Cl)cc1C(=O)O [Example 106, sodium 2-[({[4-(adamantan-1-yl)phenyl]amino}(oxo)acetyl)amino]-5-chlorobenzoate] | 88.4 | 26.3
O=C(O)c1cc(Cl)ccc1NC(=O)c1cc(-c2ccccc2)nc2ccccc12 [Example 107, sodium 5-chloro-2-{[(2-phenylquinolin-4-yl)carbonyl]amino}benzoate] | 100 | 6.7

Further lines, results first:

activity at 2.5 µM [%] | activity at 10 µM [%] | SMILES
36.3 | 0.3 | O=C(COc1ccc(C2CCCCC2)cc1)Nc1ccc(Cl)cc1C(=O)O [Known compound (3), 5-chloro-2-{[(4-cyclohexylphenoxy)acetyl]amino} benzoic acid, reference compound]
79.6 | 8.1 | O=C(Nc1ccc(Cl)cc1C(=O)O)c1ccc(C(=O)c2ccccc2)cc1 [Known compound (4), 5-chloro-2-{[(4-(phenylcarbonyl)phenyl]carbonyl}amino} benzoic acid, reference compound]
98.5 | 18.8 | O=C(Nc1ccc(Cl)cc1C(=O)O)c1ccc2c(c1)CCCC2 [Known compound (5), 5-chloro-2-[(5,6,7,8-tetrahydronaphthalene-2-ylcarbonyl)amino] benzoic acid, reference compound]
85 | 37.4 | O=C(O)c1cc(Cl)ccc1NC(=O)C(c1ccccc1)c1ccccc1 [Known compound (6), 5-chloro-2-[(diphenylacetyl)amino] benzoic acid, reference compound]
100 | 3.7 | O=C(Nc1ccc(Cl)cc1C(=O)O)c1ccc(-n2cccc2)cc1 [Salt of Known compound (7), 5-chloro-2-({[4-(1H-pyrrol-1-yl)phenyl]carbonyl}amino)benzoic acid hydrochloride, reference compound]
